Measurements reported in publication PMC10060354, “Discovery of a small molecule ligand of FRS2 that inhibits invasion and tumor growth” (Cellular Oncology, 2022).

Tests used:
[1] = system: SKOV3 flank tumors; experiment: Anti-tumor activity, SKOV3 flank xenograft model; type: in vivo, mice; conditions: 200 mg/kg PO once per day
Experimental: SKOV3 model: SKOV3 cells were cultured in McCoy´s 5A (26,600–023, ThermoFisher) media (10%FCS) until P7. Freshly isolated cells (1 × 10^6) with a viability of 98% were subcutaneously transplanted to left flank of 8-week-old female mice in PBS/Matrigel (1:1). […] Tumor diameters were determined by calliper measurements 2 × weekly, body weight (BW) was measured as parameter for tolerability 2 × weekly. For assessing significance of differences between treatments at the individual timepoints, a two-way ANOVA analysis with Turkey’s multiple comparison test was performed.

[2] = molecular target: T1, GB1-FRS2_PTB:FGFR_PEP (Homo sapiens, UniProt Q8WU20); experiment: nanoDSF competition assay with the FGFR peptide; type: binding; conditions: PTB domain:FGFR peptide 1:5; 500 μM compound
T1 construct: FRS2-PTB 11-140aa; 6xHis (N); made in house; host or cells: E. coli BL21 (DE3) for the protein
T1 sequence (Q8WU20 11-140): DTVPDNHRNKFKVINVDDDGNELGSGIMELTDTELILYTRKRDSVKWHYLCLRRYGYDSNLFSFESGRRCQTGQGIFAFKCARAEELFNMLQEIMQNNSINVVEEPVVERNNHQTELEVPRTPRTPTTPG
Experimental: Purified FRS2_PTB or GB1_FRS2_PTB protein tagged with 6 × Histidine residues and the B1 immunoglobulin binding domain of the streptococcal protein G (GB1) were diluted in the protein buffer (100 mM sodium phosphate, 50 mM NaCl, 0.5 mM EDTA, 50 mM arginine, 1 mM TCEP, pH 7.0) to 30 μM, GB-1 to 40 μM. FGFR_PEP, compounds or paracetamol (PARA) as negative control were dissolved at 1 mM in the protein buffer supplemented with 10% DMSO. Compound and protein were mixed at 1:1 volume ratio yielding a final concentration of 15 μM and 20 μM for FRS2_PTB/GB1_FRS2_PTB and GB1, respectively, as well as 500 μM for FGFR_PEP or compounds. The mixture was incubated for 15 min. Each compound was measured in triplicates. Protein controls were measured in six replicates in the beginning. The quality of the screen was assessed by the Z-factor. nanoDSF validation studies were performed on a Prometheus® system in high sensitivity capillaries. Samples were heated with 1 °C/min from 20 to 95 °C. Each compound was measured in triplicates. GB1-FRS2_PTB and GB1 were diluted in the protein buffer (100 mM sodium phosphate, 50 mM NaCl, 0.5 mM EDTA, 50 mM arginine, 1 mM TCEP, pH 7.0) to 30 μM. Compounds 3.3, 3.4, 3.18 as well as the 3.18 analogues were dissolved in 100% DMSO at 50 or 100 mM and further diluted to 1 mM with a final […]. FGFR_PEP was dissolved at 1 mM in the protein buffer supplemented with 10% DMSO. Compound and protein were mixed at 1:1 volume ratio yielding final concentrations of 15 μM protein and 500 μM for the compounds. FGFR_PEP was measured against both GB1-FRS2_PTB and GB1, all other compounds only against GB1-FRS2_PTB. The mixture was incubated for 15 min before measurement. The data was analyzed for both the ratio of signals at 330 and 350 nm and at 350 nm alone. For the competition assays, the PTB domain and the FGFR peptide were mixed at a 1:5 ratio, and ligand competition was assayed in the presence of 500 μM compound.

[3] = Multi-dose MTD with plasma exposure; type: in vivo
Experimental: […]. […] Body weights were recorded once daily for 8 days. […] In addition, plasma samples were collected at 0.5, 1, 2 and 5.3 h(s) after the second dose on Day 4 (150 mg/kg, PO; bid × 5 group) and at 0.5, 1, 2 and 6 h(s) after the final dose on Day 5 (200 mg/kg, PO; qd × 5 group). The exposure levels (ng/mL) of 7 in plasma samples were then determined by LC–MS/MS. AUClast was calculated from the area under the plasma concentration–time curve from time zero to time of last measurable concentration.

[4] = system: AGS; experiment: CellTiter-Glo 3D cell viability; type: cell-based; conditions: Homo sapiens, full growth medium, 48 h
Experimental: (§1) Cell viability was determined using CellTiter-Glo® 2D or 3D cell viability assays (#G9242, #G9682, Promega). 500 cells/25 µl were seeded in flat bottom (#781,091, Greiner bio-one) or U-low adhesion (#4516, Corning) 384-well plate, 24 h prior to treatment. Increasing concentrations of compounds are deposited on cells using a HP Digital Drug Dispenser with DMSO total volume normalization. After 48 h, the CellTiter-Glo® 2D or 3D reagent was added (volume/volume) following manufacturer’s instructions. Plates were incubated at RT (room temperature) under agitation for 30 min and luminescence representing the number of viable cells was quantified with a Cytation 3 imaging reader (BioTek®). Experiments were performed independently three times with three technical replicas each.

[5] = system: RT-112; experiment: CellTiter-Glo 3D cell viability; type: cell-based; conditions: Homo sapiens, RT-112, 48 h
Experimental: as §1

[6] = system: Caco-2 cells; experiment: CaCo-2 permeability (bi-directional); conditions: Direction A2B
Method in brief: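 Caco-2 monolayers (passage 40–60) cultured 20 days on Transwells, equilibrated 40 min in HBSS; compound dosed apically (A-B) or basolaterally (B-A) with 1% v/v DMSO and lucifer yellow integrity marker, in duplicate. LC–MS/MS quantification; Papp from permeation rate, C0 and monolayer area; efflux ratio = Papp(B-A)/Papp(A-B).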

Structure (SMILES)	mice with less than average control tumor growth during treatment [1]	tumor growth (result in words) [1]	nanoDSF competition with FGFR peptide (result in words) [2]	additional body weight loss, days 5-8 ([3]; 200 mg/kg daily for 5 days) [%]	body weight loss, days 1-5 ([3]; 200 mg/kg daily for 5 days) [%]	multi-dose clinical signs (result in words) ([3]; 200 mg/kg daily for 5 days)	plasma concentration reached, multi-dose ([3]; 200 mg/kg once daily for 5 days, day five, for at least six h after administration) [µM]	multi-dose mortality (result in words) ([3]; mouse, in vivo)	IC50 [4] [µM]	IC50 [5] [µM]	Comments: A2B permeation (result in words) [6]
O=[N+]([O-])c1c(Cl)cc(O)c2c1C1C=CCC1C(c1ccc(Cl)cc1)N2 (stereo not shown) [Compound 7]	six out of the seven	significant reduction in tumor growth between d55 and d80	negative shift in compound-mixed samples	14.6	10	induced vocalization, hunchback and decrease in touch response, abdominal and limb tone and low limb post	20	No mortality was noted	3.35	12.3	–
O=[N+]([O-])c1c(Cl)cc(O)c2c1C1C=CCC1C(c1ccc(Cl)cc1Cl)N2 (stereo not shown) [Compound 8]	–	–	negative shift in compound-mixed samples	–	–	–	–	–	–	–	Test compound not detectable in receiver compartments A2B.
N#Cc1c(Cl)cc(O)c2c1C1C=CCC1C(c1ccc(Cl)cc1)N2 (stereo not shown) [Compound 14]	–	–	–	–	–	–	–	–	–	–	Test compound not detectable in receiver compartments A2B.
